Some test systems named below: 786-0; HCT-15; HT-29; SF-539; A549; SF-268; IGROV-1; SN12C; MDA-MB-435; NCI-H23; UO-31; SNB-75; PC-3; COLO 205; NCI-H226; RXF 393; TK-10; CAKI-1; SK-MEL-28; MCF7.
Holding throughout (assay): DTP human tumour cell line panel, 48 h

The structures appear in SMILES notation.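 A five-concentration, 48-hour dose response in 96-well plates underlies each endpoint, interpolated linearly between surrounding concentrations. Here, GI50 denotes the concentration required for 50% inhibition of growth.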 Active and inactive are the calls of the source. Cut-off read from the data, not from the text of the source: active = GI50 up to about 1.1 µM and inactive = higher. Bounds are passed on as bounds.

Consider `N#CC1C(=S)NC(c2ccccc2)=CC12CCCCC2` (stereo not given), for which the GI50 (in general, the concentration at which growth is held to half of that of the control) in the test with 786-0 was 35 µM (inactive); in the test with HCT-15, 19.9 µM; with HT-29, 27.6 µM (inactive); in the test on SF-539, 43 µM (inactive); in the test with A549, 29.6 µM (inactive); in the test on SF-268, 66.8 µM (inactive). In addition, the GI50 in the test with IGROV-1 was 23.4 µM (inactive); in the test with SN12C, 35 µM (inactive); with MDA-MB-435 it was 18.2 µM (inactive); with NCI-H23 it was 15.7 µM (inactive); in the test on UO-31, 25 µM (inactive); in the test with SNB-75 it was 58.7 µM (inactive). In addition, the GI50 in the test with PC-3 was 38 µM (inactive); in the test with COLO 205, 30.1 µM (inactive); with NCI-H226, 26.7 µM (inactive); in the test on RXF 393, 87.1 µM (inactive); in the test on TK-10, 23 µM (inactive); in the test with CAKI-1, 47.3 µM (inactive). The GI50 in the test on SK-MEL-28 is 34.4 µM (inactive); with MCF7 it was 21.9 µM (inactive).
For the compound `Cc1nnc(SCc2nc(C#N)c(C#N)nc2CSc2nnc(C)s2)s1`, the GI50 is 9.48 µM (inactive) with 786-0; 7.66 µM with HCT-15; 18.2 µM (inactive) with HT-29; 19.6 µM (inactive) in the test with SF-539; 33.3 µM (inactive) with A549; 17.9 µM (inactive) in the test with SF-268. Also, the GI50 was 16.8 µM (inactive) in the test with IGROV-1; 17.3 µM (inactive) in the test on SN12C; 8.63 µM (inactive) in the test on MDA-MB-435; 19.1 µM (inactive) in the test on NCI-H23; 8.49 µM (inactive) in the test on UO-31; 19.8 µM (inactive) in the test on SNB-75. In addition, the GI50 is 14.8 µM (inactive) with PC-3; 11.5 µM (inactive) in the test on COLO 205; 25.1 µM (inactive) with NCI-H226; 6.76 µM (inactive) in the test on RXF 393; 6.82 µM (inactive) in the test with TK-10; 5.74 µM (inactive) in the test with CAKI-1. Further, the GI50 is 26.9 µM (inactive) in the test with SK-MEL-28 and 12.3 µM (inactive) in the test with MCF7.
For `COc1cc(S(=O)(=O)Nc2ccc(-c3csc(/N=C\C=C\c4ccccc4)n3)cc2)ccc1Cl`, the GI50 in the test on 786-0 was > 100 µM (inactive); in the test with HCT-15 it was 50 µM; in the test on HT-29, > 100 µM (inactive); in the test on SF-539, 22 µM (inactive); with A549 it was 80.5 µM (inactive); in the test on SF-268, 29.9 µM (inactive). For the same compound, the GI50 was 39.4 µM (inactive) in the test with IGROV-1; > 100 µM (inactive) with SN12C; > 100 µM (inactive) with MDA-MB-435; 30.9 µM (inactive) in the test on NCI-H23; 44.5 µM (inactive) in the test on UO-31; > 100 µM (inactive) in the test with SNB-75. In addition, the GI50 in the test with PC-3 was 19.9 µM (inactive); in the test with COLO 205, 36.7 µM (inactive); with NCI-H226, 24.2 µM (inactive); in the test on RXF 393 it was 16.1 µM (inactive); with TK-10 it was 42.2 µM (inactive); in the test on CAKI-1, > 100 µM (inactive). For the same compound, the GI50 is > 100 µM (inactive) with SK-MEL-28 and 36.1 µM (inactive) in the test with MCF7.
For the compound `CCOC(=O)c1c(SC)nc(-c2ccc(Cl)cc2)sc1=N.[O-][Cl+3]([O-])([O-])O`, the GI50 with 786-0 is 27.3 µM (inactive); with HCT-15, 22.9 µM; in the test on HT-29, 25.8 µM (inactive); in the test on SF-539 it was 32.1 µM (inactive); in the test on A549, 37.7 µM (inactive); in the test on SF-268 it was 29.4 µM (inactive). In addition, the GI50 with IGROV-1 is 20.8 µM (inactive); in the test with SN12C, 44.4 µM (inactive); with MDA-MB-435, 34 µM (inactive); with NCI-H23, 22.6 µM (inactive); in the test on UO-31, 33.8 µM (inactive); with SNB-75 it was 25.1 µM (inactive). Further, the GI50 in the test on PC-3 was 26.1 µM (inactive); in the test on COLO 205, 21.8 µM (inactive); in the test with NCI-H226, 25.9 µM (inactive); in the test on RXF 393, 33.9 µM (inactive); in the test with TK-10, 44.3 µM (inactive); in the test on CAKI-1 it was 35.5 µM (inactive). The GI50 in the test on SK-MEL-28 is 61.9 µM (inactive); with MCF7, 29 µM (inactive).
Turning to `COc1ccc2c(c1)C(=O)OCCC2`, the GI50 in the test on 786-0 is > 100 µM (inactive); in the test with HCT-15, over 100 µM; with HT-29, > 100 µM (inactive); with SF-539 it was > 100 µM (inactive); with A549, > 100 µM (inactive); in the test with SF-268, > 100 µM (inactive). The GI50 with IGROV-1 was > 100 µM (inactive); in the test on SN12C, > 100 µM (inactive); with MDA-MB-435 it was > 100 µM (inactive); in the test with NCI-H23, > 100 µM (inactive); with UO-31, 26.7 µM (inactive); with SNB-75, 54 µM (inactive). Also, the GI50 with PC-3, with COLO 205, in the test with NCI-H226, in the test with RXF 393, in the test with TK-10 and in the test on CAKI-1 was > 100 µM (inactive) each time. Further, the GI50 with SK-MEL-28 and with MCF7 was > 100 µM (inactive) in each case.
As to `Clc1cc(Cl)ncn1`, the GI50 in the test on 786-0 was > 100 µM (inactive); in the test with HCT-15 it was over 100 µM; with HT-29, > 100 µM (inactive); in the test on SF-539, > 100 µM (inactive); in the test on A549, > 100 µM (inactive); with SF-268 it was > 100 µM (inactive). For the same compound, the GI50 with IGROV-1, with SN12C, with MDA-MB-435, with NCI-H23, in the test with UO-31 and in the test on SNB-75 was > 100 µM (inactive) in each case. For the same compound, the GI50 in the test on PC-3, with COLO 205, in the test on NCI-H226, in the test on RXF 393, in the test with TK-10 and in the test on CAKI-1 was > 100 µM (inactive) each time. Besides, the GI50 with SK-MEL-28 and with MCF7 was > 100 µM (inactive) throughout.
As to `COc1ccc(C2CC(C)(O)Oc3cc4c(cc32)OCO4)cc1` (stereo not given), the GI50 in the test with 786-0 was 37.2 µM (inactive); in the test on HCT-15 it was 23.8 µM; in the test on HT-29 it was 24.9 µM (inactive); in the test on SF-539, 38.9 µM (inactive); in the test with A549 it was 30.5 µM (inactive); with SF-268, 35.8 µM (inactive). The GI50 was 29.5 µM (inactive) with IGROV-1; 45.8 µM (inactive) in the test with SN12C; 7.14 µM (inactive) with MDA-MB-435; 33.7 µM (inactive) in the test on NCI-H23; 37.1 µM (inactive) with UO-31; 29.7 µM (inactive) in the test with SNB-75. The GI50 in the test with PC-3 is 18.7 µM (inactive); in the test on COLO 205, 19.7 µM (inactive); with NCI-H226 it was 53.7 µM (inactive); in the test with RXF 393 it was 0.0855 µM (active); in the test on TK-10, 36.1 µM (inactive); in the test with CAKI-1, 41.7 µM (inactive). Further, the results for the GI50 with SK-MEL-28 and with MCF7 were 45.6 µM (inactive) and 34.9 µM (inactive), respectively.

(Values after ChEMBL document CHEMBL1201862, “PubChem BioAssay data set” (2004).)
